According to US20170239351A1, “Therapeutic Combinations of a BTK Inhibitor, a PI3K Inhibitor, a JAK-2 Inhibitor, a PD-1 Inhibitor, and/or a PD-L1 Inhibitor” (Acerta Pharma B.V., priority 2014, published 2017):

What was measured:
ID8 ovarian cancer = assay: ID8 syngeneic orthotropic ovarian cancer model; type: in vivo, mice
pancreatic cancer = assay: KPC pancreatic cancer model (spontaneously appearing tumors); type: in vivo, KPC mice; details: 15 mg/kg BID oral
Protocol: The KPC mouse model recapitulates many of the molecular, histopathologic, and clinical features of human disease (Westphalen and Olive, Cancer J. 2012, 18, 502-510). Combination therapy with gemcitabine was also evaluated in this model. Mice were enrolled after identification of spontaneously appearing tumors in the pancreas that were ≧100 mm^3 (as assessed by high-resolution ultrasonography).

[1] = Standard drug metabolism and pharmacokinetics (DMPK) assays; type: in vitro ADME
relapsed/refractory CLL = details: human, in vivo
[2] = system: KPC derived mouse pancreatic cancer cells; assay: Orthotopic pancreatic cancer model (KPC-derived cells); type: in vivo, C57BL/6 mice; details: 15 mg/kg oral of each drug
Protocol: Orthotopic pancreatic cancer models in mice are clinically relevant, benefit from tissue site-specific pathology, and allow for study of metastasis. Qiu and Su, Methods Mol. Biol. 2013, 980, 215-223. A cell line derived from KrasG12D; Trp53R172H; Pdx1-Cre (KPC) mice was orthotopically implanted into the head of the pancreas after 35 passages. Based on the mice background from where the cell lines were generated, 1×10^6 cells were injected in C57BL/6 mice. Throughout the experiment, animals were provided with food and water ad libitum and subjected to a 12-h dark/light cycle. Animal studies were performed in accordance with the U.S. Public Health Service “Guidelines for the Care and Use of Laboratory Animals” (IACUC). After euthanization, pancreatic tumors were dissected out, weighed and single cell suspensions were prepared for flow cytometry analysis.
Results of the experiments are shown in FIG. 110, which illustrates tumor growth suppression in the orthotopic pancreatic cancer model. The statistical p-value (presumption against null hypothesis) is shown for each tested single active pharmaceutical ingredient and for the combination against the vehicle.
In this study, KrasG12D;Trp53R172H; Pdx1-Cre (KPC) derived mouse pancreatic cancer cells (10,000 cells) were injected into the pancreases of 24 female mice. After one week of expansion, drug treatment was started in mice developing pancreatic tumors.
Single cell suspensions from tumor samples were prepared as follows. Mouse tumor tissue was collected and stored in PBS/0.1% soybean trypsin inhibitor prior to enzymatic dissociation. […] Following surface staining, samples were acquired on a BD Fortessa and analyzed using FlowJo (Treestar) software.

CD4^+ T cells = assay: Th17 and Treg development from CD4+ T cells; type: cell-based
Protocol: Enriched CD4^+ T cells are plated on 24-well culture dishes that have been precoated 2 hr with 250 μL anti-TCRβ (0.5 μg/mL) plus anti-CD28 (5 μg/mL) at 37° C. in PBS. The cells are then supplemented with media containing BTK inhibitors along with the skewing cytokines as indicated in the following. The Th17 and Treg cultures are grown for 4 days before analysis. The cells are maintained for an additional 3 days with skewing cytokines (Th17; 20 ng/mL IL-6, 0.5 ng/mL TGF-β, 5 μg/mL IL-4, 5 μg/mL IFN-γ and Treg; 0.5 ng/mL TGF-β, 5 μg/mL IL-4, 5 μg/mL IFN-γ) and are supplemented with IL2 as a growth factor.

Raji cells = assay: Rituximab ADCC assay (51Cr release), healthy donor NK cells; type: cell-based, human; details: 1 μM
human platelets = assay: GPVI (convulxin-induced) platelet aggregation; type: cell-based
Protocol: GPVI platelet aggregation was measured for Formula (XVIII) and Formula (XX-A) (ibrutinib). Blood was obtained from untreated humans, and platelets were purified from […] by centrifugation. Cells were resuspended to a final concentration of 350,000/μL in buffer containing 145 mmol/L NaCl, 10 mmol/L HEPES, 0.5 mmol/L Na2HPO4, 5 mmol/L KCl, 2 mmol/L MgCl2, 1 mmol/L CaCl2, and 0.1% glucose, at pH 7.4. Stock solutions of Convulxin (CVX) GPVI were prepared on the day of experimentation and added to platelet suspensions 5 minutes (37° C., 1200 rpm) before the induction of aggregation. Aggregation was assessed with a Chronolog Lumi-Aggregometer (model 540 VS; Chronolog, Havertown, Pa.) and permitted to proceed for 6 minutes after the addition of agonist. The results are reported as maximum percent change in light transmittance from baseline with platelet buffer used as a reference.
In FIG. 129, the results of CVX-induced (250 ng/mL) human platelet aggregation results before and 15 minutes after administration of the BTK inhibitors to 6 healthy individuals are shown.

[3] = Respiratory function study (GLP safety pharmacology); details: doses through 300 mg/kg
NK cells = assay: Antibody-stimulated NK cell degranulation (CD107a), flow cytometry; type: cell-based, human; details: DHL-4 target cells
CD8^+ T cell function = assay: Cytotoxicity assay for CD8+ T cell function; type: cell-based; details: relative to vehicle
KPC pancreatic cancer = KPC pancreatic cancer model; details: in vivo
primary CLL cells = assay: Rituximab ADCC assay (51Cr release), NK cells against autologous tumor cells; type: cell-based, human; details: 1 μM; primary CLL samples
[4] = Functional observation battery (GLP safety pharmacology); details: doses through 300 mg/kg

## CC#CC(=O)N1CCC[C@H]1c1nc(-c2ccc(C(=O)Nc3ccccn3)cc2)c2c(N)nccn12 [Formula (XVIII), (S)-4-(8-amino-3-(1-(but-2-ynoyl)pyrrolidin-2-yl)imidazo[1,5-a]pyrazin-1-yl)-N-(pyridin-2-yl)benzamide]
ID8 ovarian cancer; mouse, in vivo
  CD8+ T cells: increase in CD8^+ T cells
  immunosuppressive tumor associated Tregs: significant reduction in immunosuppressive tumor associated Tregs
ID8 ovarian cancer; syngeneic murine model, versus vehicle
  ID8 ovarian cancer growth: impairs ID8 ovarian cancer growth
ID8 ovarian cancer; tumor-bearing mice
  B regulatory cells (Bregs): significant reduction in B regulatory cells (Bregs)
  total B cells: significant reduction in total B cells
ID8 ovarian cancer; tumor-bearing mice, versus vehicle
  immunosuppressive tumor associated lymphocytes: significant reduction in immunosuppressive tumor associated lymphocytes
Pancreatic cancer
  CD8 cells in tumor tissues: significant increase
  immunosuppressive TAMs, MDSCs and Tregs in tumor tissues: significantly reduced
  survival at day 14: 6/6
[1]
  solubility, plasma protein binding and oral bioavailability versus ibrutinib: greater solubility, less plasma protein binding, and better oral bioavailability than ibrutinib
relapsed/refractory CLL
  maximum tolerated dose (MTD): not reached
[2]
  immunosuppressive tumor associated myeloid cells and Tregs: reduce immunosuppressive tumor associated myeloid cells and Tregs
  tumor volume versus vehicle: statistically significant reductions in tumor volume
CD4^+ T cells
  effect on Th17 and Treg development: no adverse effects on Th17 and Treg development
Raji cells
  effect on rituximab-mediated ADCC: not inhibited
Human platelets
  GPVI platelet aggregation: does not
[3]
  respiratory function: no treatment-related adverse effects
NK cells
  inhibition of rituximab-stimulated NK cell degranulation: < 2%
CD8^+ T cell function
  CD8+ T cell function as measured by % cytotoxicity: no effect on CD8^+ T cell function
KPC pancreatic cancer
  immunosuppressive MDSCs (Gr1+Ly6CHi) in tumor tissues: significantly reduced
  immunosuppressive TAMs (CD11b+Ly6ClowF4/80+Csf1r+) in tumor tissues: significantly reduced
  immunosuppressive Tregs (CD4+CD25+FoxP3+) in tumor tissues: significantly reduced
Primary CLL cells
  effect on rituximab-mediated ADCC: not inhibited
[4]
  neurobehavioral effects or body temperature: no adverse effects
